Laboratory results from patent US6140360A, “Antifungal agent” (TOA Gosei Co., Ltd., priority 1996, dated 2000).
≈ marks a conversion by molar mass, not a printed value. Where two headings read alike, the source gives them in different places.

Key:
[1] = tested on: Candida albicans; assay: in vitro antifungal activity (MIC); type: cell-based
Description: Using Candida albicans, Aspergillus niger, Aspergillus fumigatus, and Cryptococcus neoformans as test fungi, in vitro antifungal activities were determined to confirm the antifungal activities of cryptoporic acids A, B, and D. The test method and the results are shown below.
The fungal strains used for this test were standard strains provided by Teikyo University, Institute of Medical Mycology. Drug sensitivity was measured using Yeast Morphology Agar (Difco) as media.
The test fungi were spread over slant made of a potato dextrose agar medium (NissuiSeiyaku) and cultured at 30° C. for one day (Candida, Cryptococcus) or four days (Aspergillus niger, Aspergillus neoformans). After culturing, fungi on the slant were washed away with sterile physiological saline supplemented with 0.1% Tween 80. The solution was passed through a filter with 15 μm pores. The fungi were counted on a hemocytometer and adjusted to 10^5 CFU/ml to serve as an inoculation solution. A 0.02 ml portion of this solution was inoculated into Yeast Morphology Agar containing test agents by two-fold serial dilution and cultured at 30° C. for 1 or 4 days.
Antifungal effect was judged with naked eyes. Concentrations at which evident inhibition of growth was observed compared with control media containing no drug were taken as MIC values.
Candida albicans, Aspergillus niger, Aspergillus fumigatus, and Cryptococcus neoformans were used as test fungi. The test for in vitro antifungal activity was conducted in the same manner as in 1 above to confirm antifungal activity.
3. In vitro antifungal activities of cryptoporic acid derivatives represented by formula 3 and a commercially available antifungal agent, Diflucan, were tested using Candida albicans as test fungi in the same manner.

[2] = Solubility; type: physicochemical; conditions: in methanol, acetone, and ethyl acetate
[3] = tested on: Aspergillus fumigatus; assay: in vitro antifungal activity (MIC); type: cell-based; conditions: Table 2, Yeast Morphology Agar, 30° C.
Description: Using Candida albicans, Aspergillus niger, Aspergillus fumigatus, and Cryptococcus neoformans as test fungi, in vitro antifungal activities were determined to confirm the antifungal activities of cryptoporic acids A, B, and D. The test method and the results are shown below. The fungal strains used for this test were standard strains provided by Teikyo University, Institute of Medical Mycology. Drug sensitivity was measured using Yeast Morphology Agar (Difco) as media. The test fungi were spread over slant made of a potato dextrose agar medium (NissuiSeiyaku) and cultured at 30° C. for one day (Candida, Cryptococcus) or four days (Aspergillus niger, Aspergillus neoformans). After culturing, fungi on the slant were washed away with sterile physiological saline supplemented with 0.1% Tween 80. The solution was passed through a filter with 15 μm pores. The fungi were counted on a hemocytometer and adjusted to 10^5 CFU/ml to serve as an inoculation solution. A 0.02 ml portion of this solution was inoculated into Yeast Morphology Agar containing test agents by two-fold serial dilution and cultured at 30° C. for 1 or 4 days. Antifungal effect was judged with naked eyes. Concentrations at which evident inhibition of growth was observed compared with control media containing no drug were taken as MIC values. […]

[4] = tested on: Candida albicans; assay: Infection-Treating Test, Candida albicans infected mice; type: in vivo, mice (ICR); conditions: oral in sesame oil, first dose 1 hour after i.v. inoculation (1.0×10^6 CFU/mouse), once a day, total seven days, survival, Weil method
Description: (§1) Candida albicans (1.0×10^6 CFU/mouse) or Aspergillus fumigatus (2.0×10^6 CFU/mouse) was suspended in physiological saline, and a 0.2 ml portion of each solution was injected into healthy grown mice (ICR, 4 week-old, female, 19-22 g, Nihon CLEA) via the caudal vein to establish infection. Cryptoporic acid H was dissolved in sesame oil in prescribed concentrations, and a 0.2 ml portion was orally administered per dose to the mice through a stomach probe. The first administration was conducted 1 hour after inoculation of fungi. Thereafter, administration was conducted six times (once a day every 24 hours; for a total of seven days). only the base (0.2 ml) was administered to the control group. Treatment effectiveness was evaluated with ED50 by using the Weil method from the survival rate of treated mice when all the control animals died.

[5] = tested on: Aspergillus fumigatus; assay: Infection-Treating Test, Aspergillus fumigatus infected mice; type: in vivo, mice (ICR); conditions: oral in sesame oil, first dose 1 hour after i.v. inoculation (2.0×10^6 CFU/mouse), once a day, total seven days, survival, Weil method
Description: as §1

[6] = 24 h, Table 1, Yeast Morphology Agar, 30° C., 1 day, read-out: MIC (Candida albicans)

C=C1CCC2C3(C)CCCC2(C)C1COC(C(=O)OC)C(CC(=O)O)C(=O)OCC1(C)CCCC2(C)C(COC(C(=O)OC)C(CC(=O)O)C(=O)OC3)C(=C)CCC12 (stereo not drawn) [Cryptoporic acid D]
MIC [1, 6]: 100 µg/mL (≈ 122 µM)

C=C1CC[C@H]2C(C)(C)CCC[C@]2(C)[C@H]1COC(C(=O)OC)C(CC(=O)O)C(=O)O[C@H]1CC(C)(C)[C@@H]2CC=C3COC(O)[C@@H]3[C@@]2(C)C1 (stereo partly drawn) [TG 103]
Solubility [2]: Easily soluble

C=C1CC[C@H]2[C@](C)(CO)CCC[C@]2(C)[C@H]1COC(C(=O)OC)C(CC(=O)O)C(=O)OC (stereo partly drawn) [Cryptoporic acid B]
MIC [1, 6]: 25 µg/mL (≈ 56.7 µM) | MIC [3]: 200 µg/mL (≈ 454 µM)

C=C1CC[C@H]2C(C)(C)CCC[C@]2(C)[C@H]1COC(C(=O)O)C(CC(=O)O)C(=O)O (stereo partly drawn) [Cryptoporic acid H]
ED50 [4]: 0.32 mg/kg | ED50 [5]: 2 mg/kg

OC(Cn1cncn1)(Cn1cncn1)c1ccc(F)cc1F [Diflucan, reference compound]
MIC ([1]; TIMM1623): 25 µg/mL (≈ 81.6 µM)

C=C1CC[C@H]2C(C)(C)CCC[C@]2(C)[C@H]1COC(C(=O)OC)C(CC(=O)O)C(=O)OC (stereo partly drawn) [Cryptoporic acid A]
MIC [1, 6]: 25 µg/mL (≈ 58.9 µM)

C=C1CC[C@H]2C(C)(C)CCC[C@]2(C)[C@H]1COC(C(=O)OC)C(CC(=O)O)C(=O)O[C@H]1CC(C)(C)[C@@H]2CC=C(C=O)[C@H](C=O)[C@@]2(C)C1 (stereo partly drawn) [TG 101]
Solubility [2]: Easily soluble
